The nature of the series: Stability of —PH2 compounds under storage and reaction conditions. The format is physicochemical. An excerpt:
As a result of working with the Br(CH2)3 PH2 intermediate, it was recognized that the intermediate was unexpectedly stable under a variety of storage and reaction conditions.
Furthermore, the reactivity of the —PH2 groups in these compounds toward molecules containing a wide spectrum of functional groups (including carboxylic acids, amines, thiols, and proteins) was remarkably low or non-measurable.

Structures are written as SMILES.

Consider `O=C(O)CCCCC(CCSCCCP)SCCCP` (stereo not shown) [(PH2)2S2—COOH, H2P(CH2)3SCH2CH2CH((CH2)4COOH)S(CH2)3PH2], for which the “stability to reaction conditions of solid phase peptide synthesis” value (HBTU, piperidine, solutions in DMF, trifluoroacetic acid wash) is reported as “stable”. Moreover, the “oxidation of —PH2 groups” value (during SPPS and analysis) is “resistant to oxidation”. Moreover, where the note is “wider range of chemical conditions than used with the Br(CH2)3PH2 intermediate”, the stability profile result is reported as “much improved stability profile”.

Turning to `PCCCBr.[HH]` [Br(CH2)3 PH2, 3-bromo-propyl phosphine hydride], the “stability under storage and reaction conditions” value (variety of solvents, wide pH range and temperature range) was “reasonably stable”.

For the origin of these results see patent US6780397B2, “Biomolecule conjugation strategy using novel water-soluble phosphine-based chelating agents” (Curators of the University of Missouri, priority 1998, dated 2004).
